What was measured:
Test in all cases: relative viability (nuclei count vs DMSO), 5 days (fraction); higher = more cells survive
Axitinib + Alpelisib = compound: CNC(=O)c1ccccc1Sc1ccc2c(/C=C/c3ccccn3)n[nH]c2c1 [Axitinib] + Cc1nc(NC(=O)N2CCC[C@H]2C(N)=O)sc1-c1ccnc(C(C)(C)C(F)(F)F)c1 [Alpelisib] (partner 2 µM)
Outline: (§1)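 One day after seeding in 1536-well plates, lung cancer cell lines were dosed by pin tool. Dosing was either single-drug or a fixed anchor-drug dose plus five library-drug doses (not always all listed) in √10 steps. After 5 days, nuclei were stained in one fix-and-stain step and counted on 4× images, and relative viability is the nuclei count of treated wells over that of vehicle wells, given as the median of duplicate plates.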

Bemcentinib + Bortezomib = compound: Nc1nc(Nc2ccc3c(c2)CC[C@@H](N2CCCC2)CC3)nn1-c1cc2c(nn1)-c1ccccc1CCC2 [Bemcentinib] + CC(C)C[C@H](NC(=O)[C@H](Cc1ccccc1)NC(=O)c1cnccn1)B(O)O [Bortezomib] (partner 0.002 µM)
Outline: as §1

[1] = compound: CC1=CC=C(C=C1)C(=O)CN2C3=C(CCCC3)SC2=N [Pifithrin_alpha] + CCNC(=O)c1noc(-c2cc(C(C)C)c(O)cc2O)c1-c1ccc(CN2CCOCC2)cc1 [Luminespib] (partner 0.01 µM)
Outline: as §1

[2] = compound: CC1=CC=C(C=C1)C(=O)CN2C3=C(CCCC3)SC2=N [Pifithrin_alpha] + Cc1nc(Nc2ncc(C(=O)Nc3c(C)cccc3Cl)s2)cc(N2CCN(CCO)CC2)n1 [Dasatinib] (partner 0.075 µM)
Outline: as §1

## NCI-H650
Axitinib + Alpelisib; first compound 0.005 µM
  relative viability: 1.19
Axitinib + Alpelisib; first compound 0.01581 µM
  relative viability: 1.13
Axitinib + Alpelisib; first compound 0.05 µM
  relative viability: 0.868
Axitinib + Alpelisib; first compound 0.1581 µM
  relative viability: 1.02
Axitinib + Alpelisib; first compound 0.5 µM
  relative viability: 1.24
Bemcentinib + Bortezomib; first compound 0.04 µM
  relative viability: 0.68
Bemcentinib + Bortezomib; first compound 0.1265 µM
  relative viability: 0.855
Bemcentinib + Bortezomib; first compound 0.4 µM
  relative viability: 0.92
Bemcentinib + Bortezomib; first compound 1.265 µM
  relative viability: 0.628
Bemcentinib + Bortezomib; first compound 4 µM
  relative viability: 0.701
[1]; first compound 3.162 µM
  relative viability: 0.904
[1]; first compound 10 µM
  relative viability: 0.801
[1]; first compound 31.62 µM
  relative viability: 0.607
[1]; first compound 100 µM
  relative viability: 0.773
[2]; first compound 3.162 µM
  relative viability: 0.489
[2]; first compound 10 µM
  relative viability: 0.441
[2]; first compound 31.62 µM
  relative viability: 0.415
[2]; first compound 100 µM
  relative viability: 0.388
